Here are results for two compounds from patent publication EP3415523A1, “COMBINATION MEDICAMENT COMPRISING A PRODRUG AND INHALABLE CATALYST” (priority 2017, dated 2018).

In data set [1] the test system is mammalian cells. Particulars: in vitro test on mammalian cells; cited from earlier work.
The subject of data set [2] is A549 cells. Kind of data set: Extracellular prodrug activation, viability assay (PrestoBlue). Format: cell-based. Particulars: 0.05 µM; for viability: 3 days. As to the method: A549 cells were seeded in 96-well plates at a cell concentration of 4,000 cells/well and incubated overnight before treatment. Each well was then replaced with 100 µL of fresh F-12K medium containing protected gemcitabine (0.05 µM) and DMSO (2% v/v), control wells were replaced with 100 µL of fresh F-12K medium and DMSO (2% v/v). Plates were incubated for 1 h before 10 µL of a platinum nanoparticles solution (50 ppm, 3 nm diameter) was added to each well and 10 µL of water was added to control wells. Plates were incubated for 1 h before placing them in a custom-designed gas chamber. Control plates were left untouched in the incubator. The chamber was placed in the incubator, connected to a gas bottle outside the incubator and to an outlet. The gas chamber was flushed for 1 min with hydrogen gas at 1 bar and closed. Plates were incubated 2 h in the gas chamber before placing them back in the incubator with the control plates. Control and treated plates were incubated for 72 h before PrestoBlue cell viability reagent (10% v/v) was added to each well and the plate incubated for 2 h. Fluorescence emission was measured using a microplate reader (Tecan; ex: 540 nm; em: 590 nm).
This could be due to a constitutively occurring slow reduction of the nitro group by the cells. […] Although this would require further investigations, it could be a consequence of the increased lipophilicity of the protected drug thereby conferring an increased uptake of the drug with respect to its deprotected counterpart.

Data set [3] has as its system A549 cells. Kind of data set: EC50 experiments, dose response of cell viability (PrestoBlue). The note with it: 3 days of treatment, prodrug versus its deprotected counterpart (gemcitabine). Format: cell-based. How it is done: A549 cells were seeded in 96-well plates at a cell concentration of 2,000 cells/well and incubated overnight before treatment. Each well was then replaced with 100 µL of fresh F-12K medium containing protected gemcitabine (concentration ranging from 10^4 µM to 10^-4 µM) and DMSO (2% v/v), control wells were replaced with 100 µL of fresh F-12K medium and DMSO (2% v/v). Control and treated plates were incubated for 72 h before PrestoBlue cell viability reagent (10% v/v) was added to each well and the plate incubated for 2 h. Fluorescence emission was measured using a microplate reader (Tecan; ex: 540 nm; em: 590 nm).
Dose-response experiments were performed in order to determine the half maximal effective concentration (EC50) of both the drug as well as the prodrug.

`Cc1ccc(N)cc1` [p-toluidine]: the mutagenic / genotoxic entry in data set [1] is “neither mutagenic nor genotoxic”.

Take `O=C(Nc1ccn([C@@H]2O[C@H](CO)[C@@H](O)C2(F)F)c(=O)n1)OCc1ccc([N+](=O)[O-])cc1` [gemcitabine prodrug, p-Nitrobenzyloxycarbonyl Gemcitabine]: the viability entry was “slightly lower viability than the positive control with gemcitabine” in data set [2] (both hydrogen and platinum present, compared with positive control gemcitabine); “A small decrease” in data set [2] (the 3 conditions where either hydrogen and/or platinum is missing). Further, the “activity of the drug” value in data set [2] (Fig. 7 and Fig. 8, 3 days, 5 ppm or 10 ppm platinum nanoparticles, four conditions with/without hydrogen and catalyst) was “only recovered if both the hydrogen and the platinum nanoparticles are present”. In addition, the “difference of EC50 values of drug and prodrug” value in data set [3] is given as “about 5 orders of magnitude”.
